Laboratory results as given in PubChem BioAssay (NCI).
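Briefly, cells in 96-well plates were exposed to five compound concentrations for 48 h, and endpoints were estimated by linear interpolation. Here, GI50 denotes the concentration required for 50% inhibition of growth. TGI: total growth inhibition.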

Legend:
Assay in all cases: NCI tumour cell line growth inhibition, 48 h
OVCAR-4 ovarian = test system: OVCAR-4 ovarian
HOP-62 NSCLC = test system: HOP-62 NSCLC
DU-145 prostate = test system: DU-145 prostate
MDA-MB-468 breast = test system: MDA-MB-468 breast
RPMI-8226 leukemia = test system: RPMI-8226 leukemia
A498 renal = test system: A498 renal
SNB-75 CNS = test system: SNB-75 CNS
SF-295 CNS = test system: SF-295 CNS
SK-MEL-2 melanoma = test system: SK-MEL-2 melanoma
ACHN renal = test system: ACHN renal
NCI-H226 lung = test system: NCI-H226 lung
EKVX NSCLC = test system: EKVX NSCLC
T-47D breast = test system: T-47D breast
UO-31 renal = test system: UO-31 renal
SF-539 CNS = test system: SF-539 CNS
HS 578T breast = test system: HS 578T breast
PC-3 prostate = test system: PC-3 prostate
MCF7 breast = test system: MCF7 breast
SNB-19 CNS = test system: SNB-19 CNS
IGROV1 ovarian = test system: IGROV1 ovarian
CCRF-CEM leukemia = test system: CCRF-CEM leukemia
MALME-3M melanoma = test system: MALME-3M melanoma
MDA-MB-231 breast = test system: MDA-MB-231 breast
OVCAR-8 ovarian = test system: OVCAR-8 ovarian
SW-620 colon = test system: SW-620 colon
KM12 colon = test system: KM12 colon
HOP-92 NSCLC = test system: HOP-92 NSCLC
OVCAR-5 ovarian = test system: OVCAR-5 ovarian
UACC-62 melanoma = test system: UACC-62 melanoma

`Cn1cc(-c2cc(N)n3nc(-c4cn(C)c5ccccc45)cc3n2)c2cc(F)ccc21` showed a GI50 (OVCAR-4 ovarian) of 2.49 µM, a TGI (OVCAR-4 ovarian) of 6.55 µM and a GI50 (HOP-62 NSCLC) of 1.96 µM. The TGI (HOP-62 NSCLC) was 4.82 µM, the GI50 (DU-145 prostate) was 4.15 µM and the TGI (DU-145 prostate) was 22.3 µM. For the same molecule, the GI50 (MDA-MB-468 breast) was 1.92 µM, the TGI (MDA-MB-468 breast) was 4.11 µM and the GI50 (RPMI-8226 leukemia) was 2.93 µM. It also gave a TGI (RPMI-8226 leukemia) of 8.56 µM, a GI50 (A498 renal) of 14.6 µM and a TGI (A498 renal) of 29 µM. For the same molecule, the GI50 (SNB-75 CNS) was 12.9 µM, the TGI (SNB-75 CNS) was 28.6 µM and the GI50 (SF-295 CNS) was 1.78 µM. The TGI (SF-295 CNS) was 3.68 µM, the GI50 (SK-MEL-2 melanoma) was 1.82 µM and the TGI (SK-MEL-2 melanoma) was 3.63 µM. For the same molecule, the GI50 (ACHN renal) was 1.77 µM, the TGI (ACHN renal) was 3.45 µM and the GI50 (NCI-H226 lung) was 21.7 µM. For the same molecule, the TGI (NCI-H226 lung) was 68.5 µM, the GI50 (EKVX NSCLC) was 3.02 µM and the TGI (EKVX NSCLC) was 15.7 µM. It also gave a GI50 (T-47D breast) of 2.63 µM, a TGI (T-47D breast) of 8.91 µM and a GI50 (UO-31 renal) of 1.62 µM. For the same molecule, the TGI (UO-31 renal) was 3.06 µM, the GI50 (SF-539 CNS) was 1.76 µM and the TGI (SF-539 CNS) was 3.34 µM. The GI50 (HS 578T breast) was 2.39 µM, the TGI (HS 578T breast) was 6.45 µM and the GI50 (PC-3 prostate) was 2.2 µM. For the same molecule, the TGI (PC-3 prostate) was 5.54 µM, the GI50 (MCF7 breast) was 1.77 µM and the TGI (MCF7 breast) was 3.95 µM. The GI50 (SNB-19 CNS) was 3.09 µM, the TGI (SNB-19 CNS) was 12.7 µM and the GI50 (IGROV1 ovarian) was 2.19 µM. For the same molecule, the TGI (IGROV1 ovarian) was 5.18 µM, the GI50 (CCRF-CEM leukemia) was 3.19 µM and the TGI (CCRF-CEM leukemia) was 24.2 µM. For the same molecule, the GI50 (MALME-3M melanoma) was 1.72 µM, the TGI (MALME-3M melanoma) was 3.14 µM and the GI50 (MDA-MB-231 breast) was 1.97 µM. It also gave a TGI (MDA-MB-231 breast) of 3.66 µM, a GI50 (OVCAR-8 ovarian) of 1.97 µM and a TGI (OVCAR-8 ovarian) of 3.95 µM. For the same molecule, the GI50 (SW-620 colon) was 2.01 µM, the TGI (SW-620 colon) was 4.05 µM and the GI50 (KM12 colon) was 2.47 µM. It also gave a TGI (KM12 colon) of 6.13 µM, a GI50 (HOP-92 NSCLC) of 2.06 µM and a TGI (HOP-92 NSCLC) of 4.2 µM. The GI50 (OVCAR-5 ovarian) was 2.37 µM, the TGI (OVCAR-5 ovarian) was 6.49 µM and the GI50 (UACC-62 melanoma) was 1.68 µM. The TGI (UACC-62 melanoma) was 3.09 µM.
